Data published in US12595251B2, “Amidines and amidine analogs for the treatment of bacterial infections and potentiation antibiotics” (GEORGIA STATE UNIVERSITY RESEARCH FOUNDATION, INC., priority 2018, dated 2026).
Converted amounts (≈) assume the structure as drawn. Read-outs that look alike come from different tables or passages of the source.

Legend:
[1] = tested on: M. smegmatis; experiment: Antibacterial activity against M. smegmatis (MIC, OD600, 48 h); format: cell-based, Mycobacterium smegmatis; conditions: Mycolicibacterium smegmatis, MIC = 90% growth inhibition, 7H9 media, NA=no activity
[2] = tested on: B. subtilis; experiment: Sensitization of B. subtilis to erythromycin (sensitization fold from IC90, OD600, 20 h); format: cell-based, Bacillus subtilis; conditions: for SF (B. subtilis) at 12 μM: compound at 12 μM; for SF (B. subtilis) at 3 μM: compound at 3 μM; for SF (B. subtilis) at 6 μM: compound at 6 μM; for SF (B. subtilis): sensitization fold = IC90 of erythromycin without/with compound, compound concentration not given, T=toxic
Method: (§1) E. coli bacteria were cultured in Miller's broth at 37° C. overnight prior to treatment. B. subtilis bacteria were cultured in nutrient broth at 37° C. overnight prior to treatment. […] Bacterial density was measured based on OD600.

[3] = tested on: E. coli; experiment: Sensitization of E. coli to erythromycin (sensitization fold from IC90, OD600, 20 h); format: cell-based, Escherichia coli; conditions: NA=no activity; for SF (E. coli) at 25 μM: compound at 25 μM; for SF (E. coli) at 12.5 μM: compound at 12.5 μM
Method: as §1

[4] = tested on: NDM-1 over-expressing E. coli; experiment: microbe, parasite or virus in culture; format: cell-based, Escherichia coli; conditions: for MIC: Escherichia coli; for FIC / MIC of AB with Compound C (5 μg/ml): antibiotic plus Compound C 5 μg/ml; for Sensitization fold: MIC of antibiotic only / MIC with Compound C 5 μg/ml
[5] = tested on: wild-type E. coli; experiment: Sensitization of wild-type E. coli toward antibiotics (MIC of antibiotic with/without sensitizer); format: cell-based, Escherichia coli; conditions: wild-type E. coli; for MIC: Escherichia coli, antibiotic alone, read-out: MIC of AB only; for MIC of AB with Compound C (5 μg/ml) / FIC: antibiotic plus Compound C 5 μg/ml; for FIC: fractional inhibitory concentration
Method: Bacteria were cultured with the antibiotic at various concentrations in the presence or absence of bacterial sensitizer for 24 hours at 37° C. Bacterial growth density was determined by measuring OD600 (absorbance measured at a wavelength of 600 nm). […]
The formula for calculating FIC is shown below: […]

[6] = tested on: H9c2 cells; experiment: Cytotoxicity in H9c2 cells (CCK-8, 24 h); format: cell-based
Method: H9c2 (ATCC®R-1446™) cells Were used in the studies. The H9c2 cells were maintained in DMEM (Dulbeccoa's Modified Eagle's Medium) supplemented with 10% fetal bovine serum (Mid Sci; S01520HI) and 1% penicillin-streptomycin (Sigma-Aldrich; P4333) at 37° C. with 5% CO2. The H9c2 cells were seeded in 96-well plate one day before the experiment. Different concentrations of di-amidine compounds were added into the H9c2 cells. The cells were then incubated with the compounds for 24 h at 37° C. with 5% CO2. The cell viability was tested by the CCK-8. Specifically, after 24 h incubation, 10 μL CCK-8 was added to each well. After 3 h incubation at 37° C., the absorbance at 450 nm was recorded by a plate reader. The cytoxicity in HEK293 and 3T3 cells was measured using the same procedure. Data is shown in Table 5 (NT=not toxic; --=not tested).

[7] = antibiotic alone, read-out: MIC of AB only

## Cc1cc(COc2ccc(C(=N)NC(C)C)cc2)cc(COc2ccc(C(=N)NC(C)C)cc2)c1 [drawing 815]
[1]
  MIC: 3 µM (≈ 1.42 µg/mL)

## N=C(N)c1ccc(OCc2cc(COc3ccc(C(=N)N)cc3)cc(COc3ccc(C(=N)N)cc3)c2)cc1 [drawing 828]
[1]
  MIC: 3 to 6 µM (≈ 1.57 to 3.14 µg/mL)

## Cc1cc(OCc2ccc(C(=N)N)cc2)cc(OCc2ccc(C(=N)N)cc2)c1 [drawing 736]
[2]; erythromycin, NA=no activity
  SF (B. subtilis) at 12 μM: 32-fold at 12 μM
[3]; erythromycin
  SF (E. coli) at 25 μM: 32-fold at 25 μM

## N=C(N)c1ccc(OCc2cccc(COc3ccc(C(=N)N)cc3)c2)cc1 [drawing 821]
[1]
  MIC: 12 µM (≈ 4.49 µg/mL)

## c1cc(COc2ccc(C3=NCCN3)cc2)cc(COc2ccc(C3=NCCN3)cc2)c1 [drawing 810]
[1]
  MIC: 12 µM (≈ 5.12 µg/mL)

## CC(C)(C)c1cc(COc2ccc(C(=N)N)cc2F)cc(COc2ccc(C(=N)N)cc2F)c1 [drawing 742]
[2]; erythromycin
  SF (B. subtilis) at 3 μM: 2 fold
[2]; erythromycin, NA=no activity
  SF (B. subtilis) at 6 μM: 8 fold
[3]; erythromycin, compound at 6 μM
  SF (E. coli) at 6 μM: 4 fold
[3]; erythromycin, compound at 12 μM
  SF (E. coli) at 12 μM: 32 fold

## CC[C@H]1OC(=O)[C@H](C)[C@@H](O[C@H]2C[C@@](C)(OC)[C@@H](O)[C@H](C)O2)[C@H](C)[C@@H](O[C@@H]2O[C@H](C)C[C@H](N(C)C)[C@H]2O)[C@](C)(OC)C[C@@H](C)C(=O)[C@H](C)[C@@H](O)[C@]1(C)O [Clarithromycin, clarithromycin]
[4]; [7]
  MIC: 24 µg/mL
[4]
  FIC: 0.12
  MIC of AB with Compound C (5 μg/ml): 0.4 µg/mL

## Cc1cc(CCc2ccc(C(=N)N)cc2)cc(CCc2ccc(C(=N)N)cc2)c1 [drawing 734]
[2]; erythromycin, NA=no activity
  SF (B. subtilis) at 6 μM: 32-fold at 6 μM
[3]; erythromycin
  SF (E. coli) at 12.5 μM: 8 fold
  SF (E. coli) at 25 μM: 32 fold

## O=C(N[C@H](CO)[C@H](O)c1ccc([N+](=O)[O-])cc1)C(Cl)Cl [Chloramphenicol, chloramphenicol]
[4]; [7]
  MIC: 6.25 µg/mL
[4]
  Sensitization fold: 8
  FIC: 0.22
  MIC of AB with Compound C (5 μg/ml): 0.8 µg/mL
[5]; 24 h
  MIC: 12.5 µg/mL
[5]
  MIC of AB with Compound C (5 μg/ml): 1.5 µg/mL
  FIC: 0.22

## Cc1cc(COc2ccc(C(=N)N)cc2)nc(COc2ccc(C(=N)N)cc2)c1
[2]; erythromycin, NA=no activity
  SF (B. subtilis) at 6 μM: 8 fold
  SF (B. subtilis) at 12 μM: 32 fold
[2]; NA=no activity
  SF (B. subtilis): > 30
[3]; erythromycin
  SF (E. coli) at 12.5 μM: 8 fold
  SF (E. coli) at 25 μM: 32 fold
[3]; sensitization fold = IC90 of erythromycin without/with compound, compound concentration not given, T=toxic
  SF (E. coli): 33

## CC(C)(C)c1cc(COc2ccc(C(=N)N)cc2)cc(COc2ccc(C(=N)N)cc2)c1 [drawing 818]
[1]
  MIC: 6 µM (≈ 2.58 µg/mL)

## CC(C)NC(=N)c1ccc(OCc2cccc(COc3ccc(C(=N)NC(C)C)cc3F)c2F)c(F)c1 [drawing 831]
[1]
  MIC: 12 µM (≈ 6.15 µg/mL)

## N=C(N)c1ccc2nc(-c3ccc(OCC(F)(F)C(F)(F)COc4ccc(-c5nc6ccc(C(=N)N)cc6[nH]5)cc4)cc3)[nH]c2c1 [drawing 801]
[1]
  MIC: 6 µM (≈ 3.78 µg/mL)

## N=C(N)c1ccc(OCc2cccc(COc3ccc(C(=N)N)cc3F)c2F)c(F)c1 [drawing 805]
[1]
  MIC: 12 µM (≈ 5.14 µg/mL)

## N=C(N)c1ccc(OCc2ccc(COc3ccc(C(=N)N)cc3)cc2)cc1 [drawing 814]
[1]
  MIC: 3 µM (≈ 1.12 µg/mL)

## N=C(N)c1ccc(OCc2ccc(-c3ccc(C(=N)N)cc3)cc2)cc1 [drawing 804]
[1]
  MIC: 6 µM (≈ 2.07 µg/mL)

## Cc1cc(COc2ccc(C(=N)N)cc2)cc(COc2ccc(C(=N)N)cc2)c1 [drawing 809]
[1]
  MIC: 12 µM (≈ 4.66 µg/mL)

## CC(C)NC(=N)c1ccc(OCc2cccc(COc3ccc(C(=N)NC(C)C)cc3)c2F)cc1 [drawing 830]
[1]
  MIC: 3 µM (≈ 1.43 µg/mL)

## Cc1cc(COc2ccc(CN)cc2)cc(COc2ccc(CN)cc2)c1 [drawing 733]
[2]; erythromycin, compound at 12.5 μM, NA=no activity
  SF (B. subtilis) at 12.5 μM: 16-fold at 12.5 μM
[3]; erythromycin
  SF (E. coli) at 25 μM: 4-fold at 25 μM

## Cn1c(-c2ccc(-c3ccc(C(=N)N)cc3)s2)nc2cc(-c3ccc(C(=N)N)cc3)ccc21 [drawing 819]
[1]
  MIC: 6 µM (≈ 2.7 µg/mL)

## COc1cc(C(=N)N)ccc1OCc1cccc(COc2ccc(C(=N)N)cc2OC)c1F [drawing 817]
[1]
  MIC: 6 µM (≈ 2.71 µg/mL)

## Cc1cc(-c2nc3cc(C(=N)N)ccc3n2C)sc1-c1ccc(OCCCCOc2ccc(C(=N)N)cc2)cc1 [drawing 822]
[1]
  MIC: 3 to 6 µM (≈ 1.66 to 3.32 µg/mL)

## Cc1cc(CCc2ccc(C(=N)N)cc2)cc(CCc2ccc(C(=N)N)cc2)c1 [drawing 829]
[1]
  MIC: 6 to 12 µM (≈ 2.31 to 4.61 µg/mL)

## COc1cc(C(=N)N)ccc1OCc1cccc(COc2ccc(C(=N)N)cc2OC)c1F [drawing 731]
[2]; erythromycin, NA=no activity
  SF (B. subtilis) at 6 μM: 4-fold at 6 μM

## Cc1cc(CSc2ccc(C(=N)N)cc2)cc(CSc2ccc(C(=N)N)cc2)c1 [drawing 744]
[2]; erythromycin, NA=no activity
  SF (B. subtilis) at 6 μM: 32 fold
[3]; erythromycin
  SF (E. coli) at 12.5 μM: 32 fold

## Cc1cc(CSc2ccc(C3=NCCN3)cc2)cc(CSc2ccc(C3=NCCN3)cc2)c1 [drawing 745]
[2]; erythromycin
  SF (B. subtilis) at 3 μM: 4 fold
[2]; erythromycin, NA=no activity
  SF (B. subtilis) at 6 μM: 16 fold

## CCC[C@@H]1C[C@@H](C(=O)N[C@@H]([C@H]2O[C@H](SC)[C@H](O)[C@@H](O)[C@H]2O)[C@H](C)Cl)N(C)C1 [Clindamycin, clindamycin]
[4]; [7]
  MIC: 250 µg/mL
[4]
  FIC: 0.12
  MIC of AB with Compound C (5 μg/ml): 4 µg/mL
[5]; 24 h
  MIC: 250 µg/mL
[5]
  MIC of AB with Compound C (5 μg/ml): 4 µg/mL
  FIC: 0.12

## COc1cc(C2=NCCN2)ccc1OCc1cccc(COc2ccc(C3=NCCN3)cc2OC)c1F [drawing 813]
[1]
  MIC: 25 µM (≈ 12.6 µg/mL)

## Cc1cc(COc2ccc(C3=NCCN3)cc2)cc(COc2ccc(C3=NCCN3)cc2)c1 [drawing 723]
[2]; NA=no activity
  SF (B. subtilis): >4

## N=C(N)c1ccc(OCc2cccc(COc3ccc(C(=N)N)cc3)n2)cc1 [drawing 823]
[1]
  MIC: 12 µM (≈ 4.51 µg/mL)

## N=C(N)c1ccc(OCc2cccc(COc3ccc(C(=N)N)cc3)c2F)cc1 [drawing 806]
[1]
  MIC: 12 µM (≈ 4.71 µg/mL)

## Fc1c(COc2ccc(C3=NCCN3)cc2)cccc1COc1ccc(C2=NCCN2)cc1 [drawing 811]
[1]
  MIC: 25 µM (≈ 11.1 µg/mL)

## N=C(N)c1ccc(OCc2cccc(COc3ccc(C(=N)N)cc3)n2)cc1 [drawing 857]
[6]
  H9c2 CC^50: 50 µM

## N=C(N)c1ccc(OCCCCCCCCOc2ccc(C(=N)N)cc2)cc1 [drawing 855]
[6]
  H9c2 CC^50: <5 µM

## COc1cc(C(=N)N)ccc1OCc1cc(C)cc(COc2ccc(C(=N)N)cc2OC)c1 [drawing 816]
[1]
  MIC: 25 µM (≈ 11.2 µg/mL)

## N=C(N)c1ccc(OCc2ccc(COc3ccc(C(=N)N)cc3)cc2)cc1 [drawing 728]
[2]; NA=no activity
  SF (B. subtilis): <2

## CC(C)(C)c1cc(COc2ccc(C(=N)N)cc2)cc(COc2ccc(C(=N)N)cc2)c1 [drawing 873]
[6]
  H9c2 CC^50: 25 µM

## Cc1cc(COc2ccc(C3=NCCN3)cc2)cc(COc2ccc(C3=NCCN3)cc2)c1 [drawing 826]
[1]
  MIC: 25 µM (≈ 11 µg/mL)

## N=C(N)c1ccc(OCCCCCCOc2ccc(C(=N)N)cc2)cc1 [drawing 825]
[1]
  MIC: 6 µM (≈ 2.13 µg/mL)

## CO[C@@H]1[C@@H](OC(N)=O)[C@@H](O)[C@H](Oc2ccc3c(O)c(NC(=O)c4ccc(O)c(CC=C(C)C)c4)c(=O)oc3c2C)OC1(C)C [Novobiocin, novobiocin]
[4]; [7]
  MIC: 50 µg/mL
[4]; read-out: MIC of AB with Compound C (5 μg/ml), antibiotic plus Compound C 5 μg/ml
  MIC: 1.6 µg/mL
[4]
  Sensitization fold: 32
  FIC: 0.13
[5]
  MIC: 100 µg/mL
  MIC of AB with Compound C (5 μg/ml): 1.5 µg/mL
  FIC: 0.12

## N=C(N)c1ccc(COc2cc(OCc3ccc(C(=N)N)cc3)cc(C(F)(F)F)c2)cc1 [drawing 888]
[6]
  H9c2 CC^50: 50 µM

## N=C(N)c1ccc2nc(-c3ccc(OCC(F)(F)C(F)(F)COc4ccc(-c5nc6ccc(C(=N)N)cc6[nH]5)cc4)cc3)[nH]c2c1 [drawing 847]
[6]
  H9c2 CC^50: 50 µM

## Cn1c(CCc2nc3cc(C(=N)N)ccc3n2C)nc2cc(C(=N)N)ccc21 [drawing 860]
[6]
  H9c2 CC^50: 50 µM
